Data published in patent US8697747B2, “Enhancing coagulation or reducing fibrinolysis” (THe UAB Research Foundation, priority 2009, dated 2014).

Test system: pooled normal plasma
Experiment: Clot lifespan model (CLSM) thrombelastography with tPA, normal plasma
Assay type: biochemical, human
Settings: 100 μM
Protocol: Pooled normal plasma (George King Bio-Medical, Overland Park, Kans.) anticoagulated with sodium citrate was utilized for experimentation. […] Factor XIII (FXIII) deficient plasma anticoagulated with sodium citrate was also obtained from the same vendor.
Plasma Sample Composition. The final volume for all subsequently described plasma sample mixtures was 359.4 μL. Sample composition consisted of 316 μL of plasma; 10 μL of tissue factor (0.1% final concentration in 0.9% NaCl; Diagnostica Stago, Asnieres, France), 3.6 μL of dimethyl sulfoxide (DMSO) or DMSO with CORM-2 (Sigma-Aldrich, St. Louis, Mo.) or DMSO with inactivated CORM-2 (iCORM-2), 10 μL of tissue-type plasminogen activator (tPA, 580 U/μg, Genentech, Inc., San Francisco, Calif.) diluted with 10 mM potassium phosphate buffer (pH 7.4) for a final activity of 100 IU/mL, and 20 μL of 200 mM CaCl2. […] This concentration of CORM-2 was chosen because the concentration of CO released would be expected to be in the mid to lower ranges used in previously reported ex vivo, in vitro, and cell-based experiments (Motterlini et al. 2002; Megias et al. 2007; Chlopicki et al. 2006; Dong et al. 2008). […] (Motterlini et al. 2005). While CORM-2 decays slowly in DMSO, DMSO was added to the dry compound just prior to placement into the plasma mixture. The specific series of experiments are subsequently presented.
Concentration-Response Relationships of CORM-2 and iCORM-2 with Clot Lifespan Model (CLSM) Parameters. Normal plasma was exposed to 0, 25, 50, 100 or 200 μM CORM-2 (n=4 per concentration. Additional plasma samples were exposed to 25, 50 or 100 μM iCORM-2 (n=4 per concentration). Samples underwent CLSM analyses as subsequently described.
Comparison of the Effects of CORM-2 and iCORM-2 on CLSM Parameters in Normal Plasma. Given the results of the aforementioned experiments, additional samples of normal plasma were exposed to 0 or 100 μM of CORM-2 or iCORM-2 (n=4 per additional sample condition, n=8 per condition for final analyses). Samples underwent CLSM analyses as subsequently described.
Clot Lifespan Model Analyses. As described in Example 1, plasma sample mixtures were placed in a disposable cup in a computer-controlled THROMBELASTOGRAPH® hemostasis system (Model 5000, Haemoscope Corp., Niles, Ill.), with addition of CaCl2 as the last step to initiate clotting. Data were collected until clot lysis time occurred. […] As this model involves complete fibrinolysis, TTG is equivalent to ACL, so ACL was not presented as it provides no additional information.
Statistical Analyses. Data are presented as median (1st, 3rd quartiles). […] Nonlinear and linear analyses and curve fitting of the various CORM-2 concentrations effects on CLSM variables were performed with commercially available software (SigmaPlot 11.0, Systat Software, Inc., San Jose, Calif.). Analyses of the effects of CORM-2 and iCORM-2 on CLSM variables in normal plasma were conducted with Kruskal-Wallis one way analysis of variance on ranks, whereas Mann-Whitney rank sum tests were used to assess the effects of CORM-2 on CLSM variables in the various immunodepleted/congenitally deficient plasma types (SigmaStat 3.1, Systat Software, Inc., San Jose, Calif.). Graphical representation of the data was generated with commercially available software (SigmaPlot 11.0, Systat Software, Inc., San Jose, Calif.; CorelDRAW 12.0, Corel Corporation, Ottawa, Ontario, Canada; Origin 7.5, OriginLab Corp., Northampton, Mass.). A P value of <0.05 was considered significant.

[C-]#[O+].[C-]#[O+].[C-]#[O+].[C-]#[O+].[C-]#[O+].[C-]#[O+].[Cl][Ru][Cl].[Cl][Ru][Cl] [CORM-2, tricarbonyldichlororuthenium (II) dimer]
delay of the onset of fibrinolysis vs samples not exposed (tPA): 258% | enhancement of strength of the clot vs samples not exposed (tPA): 113% | enhancement of the velocity of growth vs samples not exposed (tPA): 120% | increase in CGT vs 0 μM CORM-2 (tPA): 126% | increase in CLS vs 0 μM CORM-2 (tPA): 145% | increase in CLT vs 0 μM CORM-2 (tPA): 143% | CGT (clot growth time) (tPA 100 IU/mL, median, n=8): 508 s | CLS (clot lifespan) (tPA 100 IU/mL, median, n=8): 2325 s | CLT (clot lysis time) (tPA 100 IU/mL, median, n=8): 1768 s | MRL (maximum rate of lysis) (tPA 100 IU/mL, median, n=8): −1.9 -dynes/cm^2/sec | MRTG (maximum rate of thrombus generation) (tPA 100 IU/mL, median, n=8): 9.7 dynes/cm^2/sec | TMRL (time to maximum rate of lysis) (tPA 100 IU/mL, median, n=8): 1218 s | TMRTG (time to maximum rate of thrombus generation) (tPA 100 IU/mL, median, n=8): 155 s | TTG (total thrombus generation) (tPA 100 IU/mL, median, n=8): 281 dynes/cm^2
